Measured values taken from US9409917B2, “Heterocyclic amide derivatives as P2X7 receptor antagonists” (ACTELION PHARMACEUTICALS LTD., priority 2012, dated 2016).
pIC50: −log10 of the molar value.

biological target: human recombinant P2X7 receptor (Homo sapiens (Human), UniProt Q99572); experiment: YO-PRO assay: P2X7 receptor antagonistic activity (ATP-induced YO-PRO-1 uptake, FLIPR); conditions: not given
Sequence (Q99572 whole entry): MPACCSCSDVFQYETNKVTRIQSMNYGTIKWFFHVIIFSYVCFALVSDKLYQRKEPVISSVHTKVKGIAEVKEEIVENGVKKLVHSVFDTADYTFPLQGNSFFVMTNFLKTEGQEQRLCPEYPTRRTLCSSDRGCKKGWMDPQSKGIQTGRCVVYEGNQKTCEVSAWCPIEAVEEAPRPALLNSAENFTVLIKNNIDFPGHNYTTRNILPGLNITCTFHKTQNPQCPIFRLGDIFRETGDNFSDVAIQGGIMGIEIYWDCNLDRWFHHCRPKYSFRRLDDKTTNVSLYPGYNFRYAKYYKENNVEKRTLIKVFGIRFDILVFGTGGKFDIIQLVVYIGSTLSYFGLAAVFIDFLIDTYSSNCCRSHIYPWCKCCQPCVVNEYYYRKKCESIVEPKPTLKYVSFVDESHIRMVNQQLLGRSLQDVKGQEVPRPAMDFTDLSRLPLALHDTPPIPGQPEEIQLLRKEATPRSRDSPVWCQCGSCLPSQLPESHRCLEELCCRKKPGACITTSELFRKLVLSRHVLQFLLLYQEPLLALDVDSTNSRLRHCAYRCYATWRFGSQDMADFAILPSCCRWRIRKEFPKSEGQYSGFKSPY

Row | Compound | pIC50
1 | [2H]C([2H])([2H])c1cc(Cl)cc(Cl)c1CNC(=O)C1COc2ncccc21 (single isomer, unassigned) [Example 97, 2,3-Dihydro-furo[2,3-b]pyridine-3-carboxylic acid 2,4-dichloro-6-trideuteromethyl-benzylamide] | 7.70
2 | [2H]C([2H])([2H])c1cc(Cl)cc(Cl)c1CNC(=O)C1COc2ncccc21 (single isomer, unassigned) [Example 98, 2,3-Dihydro-furo[2,3-b]pyridine-3-carboxylic acid 2,4-dichloro-6-trideuteromethyl-benzylamide] | 8.74
3 | O=C(NC1CCc2cc(Cl)ccc21)C1COc2ncccc21 (single isomer, unassigned) [Example 99, rac-2,3-Dihydro-furo[2,3-b]pyridine-3-carboxylic acid (5-chloro-indan-1-yl)-amide] | 6.52
4 | O=C(NC1CCc2cc(Cl)ccc21)C1COc2ncccc21 (single isomer, unassigned) [Example 100, rac-2,3-Dihydro-furo[2,3-b]pyridine-3-carboxylic acid (5-chloro-indan-1-yl)-amide] | 7.22

same assay, conditions: read-out: IC50 [nM], antagonistic activities with respect to the P2X7 receptor

Row | Compound | IC50
5 | (S)-2,3-Dihydro-furo[2,3-b]pyridine-3-carboxylic acid (R)-indan-1-ylamide and (R)-2,3-Dihydro-furo[2,3-b]pyridine-3-carboxylic acid (R)-indan-1-ylamide [Example 69] | 400 nM

same assay, conditions: read-out: IC50 [nM], antagonistic activities with respect to the P2X7 receptor; HEK-293 cells expressing human recombinant P2X7 receptor; YO-PRO-1 fluorescence; ATP 250 μM, 90 minutes; highest concentration 10 μM

Row | Compound | IC50
6 | O=C(NCc1c(Cl)cc(Cl)cc1Br)C1COc2ncccc21 (single isomer, unassigned) [Example 80, 2,3-Dihydro-furo[2,3-b]pyridine-3-carboxylic acid 2-bromo-4,6-dichloro-benzylamide] | 4.1 nM
7 | O=C(NCC(c1cnc(C(F)(F)F)nc1)N1CCOCC1)C1COc2ncccc21 (single isomer, unassigned) [Example 81, 2,3-Dihydro-furo[2,3-b]pyridine-3-carboxylic acid [2-morpholin-4-yl-2-(2-trifluoromethyl-pyrimidin-5-yl)-ethyl]-amide] | 7520 nM
8 | O=C(NCC(c1cnc(C(F)(F)F)nc1)N1CCOCC1)C1COc2ncccc21 (single isomer, unassigned) [Example 82, 2,3-Dihydro-furo[2,3-b]pyridine-3-carboxylic acid [2-morpholin-4-yl-2-(2-trifluoromethyl-pyrimidin-5-yl)-ethyl]-amide] | 2230 nM
9 | O=C(NC(CO)C1CCCCCC1)C1CCOc2ncccc21 (stereo not shown) [Example 52, 3,4-Dihydro-2H-pyrano[2,3-b]pyridine-4-carboxylic acid (1-cycloheptyl-2-hydroxy-ethyl)-amide] | 276 nM
10 | O=C(NCC(c1cnc(C(F)(F)F)nc1)N1CCC(F)(F)CC1)C1COc2ncccc21 (stereo not shown) [Example 62, 2,3-Dihydro-furo[2,3-b]pyridine-3-carboxylic acid [2-(4,4-difluoro-piperidin-1-yl)-2-(2-trifluoromethyl-pyrimidin-5-yl)-ethyl]-amide] | 46.9 nM
11 | O=C(NC1CC1c1ccccc1)C1COc2ncccc21 (stereo not shown) [Example 64, 2,3-Dihydro-furo[2,3-b]pyridine-3-carboxylic acid (2-phenyl-cyclopropyl)-amide] | 4850 nM
12 | NC(=O)C1CCCCC1NC(=O)C1COc2ncccc21 (stereo not shown) [Example 66, 2,3-Dihydro-furo[2,3-b]pyridine-3-carboxylic acid (2-carbamoyl-cyclohexyl)-amide] | 5880 nM
13 | C[C@@H](NC(=O)C1COc2ncccc21)c1ccc(Cl)cc1Cl (stereo partly drawn) [Example 70, 2,3-Dihydro-furo[2,3-b]pyridine-3-carboxylic acid [(R)-1-(2,4-dichloro-phenyl)-ethyl]-amide] | 110 nM
14 | C[C@@H](NC(=O)C1COc2ncccc21)c1ccc(Cl)cc1Cl (stereo partly drawn) [Example 71, 2,3-Dihydro-furo[2,3-b]pyridine-3-carboxylic acid [(R)-1-(2,4-dichloro-phenyl)-ethyl]-amide] | 36.5 nM
15 | O=C(NCC(c1ccc(C(F)(F)F)cc1)N1CCC(F)(F)CC1)C1COc2ncccc21 (stereo not shown) [Example 78, 2,3-Dihydro-furo[2,3-b]pyridine-3-carboxylic acid [2-(4,4-difluoro-piperidin-1-yl)-2-(4-trifluoromethyl-phenyl)-ethyl]-amide] | 122 nM
16 | O=C(NCC(c1cnc(C(F)(F)F)nc1)N1CCOCC1)C1COc2ncccc21 (stereo not shown) [Example 83, 2,3-Dihydro-furo[2,3-b]pyridine-3-carboxylic acid [2-morpholin-4-yl-2-(2-trifluoromethyl-pyrimidin-5-yl)-ethyl]-amide] | 124 nM
17 | O=C(NCC(c1cnc(C(F)(F)F)nc1)N1CCOCC1)C1COc2ncccc21 (stereo not shown) [Example 84, 2,3-Dihydro-furo[2,3-b]pyridine-3-carboxylic acid [2-morpholin-4-yl-2-(2-trifluoromethyl-pyrimidin-5-yl)-ethyl]-amide] | 20.8 nM
18 | COc1ccc(C(CNC(=O)C2COc3ncccc32)N2CCOCC2)cn1 (stereo not shown) [Example 87, 2,3-Dihydro-furo[2,3-b]pyridine-3-carboxylic acid [2-(6-methoxy-pyridin-3-yl)-2-morpholin-4-yl-ethyl]-amide] | 978 nM
19 | Cc1ccc(C(CNC(=O)C2COc3ncccc32)N2CCOCC2)cn1 (stereo not shown) [Example 90, 2,3-Dihydro-furo[2,3-b]pyridine-3-carboxylic acid [2-(6-methyl-pyridin-3-yl)-2-morpholin-4-yl-ethyl]-amide] | 1150 nM
20 | O=C(NCC(c1cnc(C2CC2)nc1)N1CCOCC1)C1COc2ncccc21 (stereo not shown) [Example 91, 2,3-Dihydro-furo[2,3-b]pyridine-3-carboxylic acid [2-(2-cyclopropyl-pyrimidin-5-yl)-2-morpholin-4-yl-ethyl]-amide] | 215 nM
21 | O=C(NCC(c1ccc(C(F)(F)F)nc1)N1CCOCC1)C1COc2ncccc21 (stereo not shown) [Example 92, 2,3-Dihydro-furo[2,3-b]pyridine-3-carboxylic acid [2-morpholin-4-yl-2-(6-trifluoromethyl-pyridin-3-yl)-ethyl]-amide] | 82.2 nM
22 | O=C(N[C@@H]1CCCc2ccccc21)C1COc2ncccc21 (stereo partly drawn) [Example 107, 2,3-dihydrofuro[2,3-b]pyridine-3-carboxylic acid ((R)-1,2,3,4-tetrahydronaphthalen-1-yl)-amide] | 1220 nM
23 | O=C(N[C@@H]1CCCc2ccccc21)C1COc2ncccc21 (stereo partly drawn) [Example 108, 2,3-dihydrofuro[2,3-b]pyridine-3-carboxylic acid ((R)-1,2,3,4-tetrahydronaphthalen-1-yl)-amide] | 191 nM
24 | O=C(N[C@@H]1CCCc2cccc(Cl)c21)C1COc2ncccc21 (stereo partly drawn) [Example 111, 2,3-Dihydro-furo[2,3-b]pyridine-3-carboxylic acid ((R)-8-chloro-1,2,3,4-tetrahydro-naphthalen-1-yl)-amide] | 221 nM
25 | O=C(N[C@@H]1CCCc2cccc(Cl)c21)C1COc2ncccc21 (stereo partly drawn) [Example 112, 2,3-Dihydro-furo[2,3-b]pyridine-3-carboxylic acid ((R)-8-chloro-1,2,3,4-tetrahydro-naphthalen-1-yl)-amide] | 9.5 nM
26 | O=C(NC1CCc2cccc(Br)c21)C1COc2ncccc21 (stereo not shown) [Example 113, 2,3-Dihydro-furo[2,3-b]pyridine-3-carboxylic acid (7-bromo-indan-1-yl)-amide] | 35.9 nM
27 | O=C1c2c(Cl)cc(Cl)cc2CC1NC(=O)C1COc2ncccc21 (stereo not shown) [Example 116, 2,3-Dihydro-furo[2,3-b]pyridine-3-carboxylic acid (5,7-dichloro-1-oxo-indan-2-yl)-amide] | 9010 nM
28 | (S)-2,3-Dihydro-furo[2,3-b]pyridine-3-carboxylic acid ((1S,2R)-2-hydroxy-indan-1-yl)-amide and (R)-2,3-Dihydro-furo[2,3-b]pyridine-3-carboxylic acid ((1S,2R)-2-hydroxy-indan-1-yl)-amide [Example 65] | 3400 nM
